Legend:
[1] = system: mitochondria in U-2 OS cells; assay: Mitochondria labelling with AzG-1 in cells pre-treated with TPP-BCN; type: cell-based, human; details: U-2 OS cells pre-treated with TPP-BCN, 10 μM AzG-1, 2 h
Protocol: (§1) Excited with the results, we further challenged the model and developed another ‘tame' azide-bearing probe, AzG-1, to label molecules in mitochondria and the fancy tubulin protein in living cells (Figs 4a,b). To target mitochondria, U-2 OS cells were pre-treated with TPP-BCN (an analogue of triphenylphosphonium) before labelled with 10 μM AzG-1. For tubulin labelling, a cyclooctyne-containing UAA, N-ɛ-(cyclooct-2-yn-1-yloxy)carbonyl)L-lysine (CoK) was selected for incorporating into tubulin and reacting with AzG-1 via SPAAC.[29] CHO-K1 cells were co-transfected with plasmids pCoKRS-tRNA and pTub-26TAG to incorporate CoK into α-tubulin at position 26. Site-specific incorporation of CoK using an orthogonal tRNA^Pyl/CoKRS pair was confirmed via western blot analysis (Supplementary Figs. 19 and 20). After incorporation of CoK, cells were then labelled with 10 μM AzG-1 at 37 °C. CHO-K1 cells transfected with plasmid pEGFP-Tubwt expressing EGFP-fused wild-type α-tubulin was used as a control. Confocal fluorescence images were then taken AW of unreacted AzG-1.
(§2) Figure 4 Live cell imaging with AzG-1 (a) Chemical structures of azide-bearing probe AzG-1 and its descriptor values. […] (c) Fluorescence imaging of mitochondria in U-2 OS cells labelled with AzG-1. […] (d) Fluorescence imaging of α-tubulin in live CHO-K1 cells. […]

[2] = system: CoK-bearing α-tubulin in CHO-K1 cells; assay: Protein labelling on live cells using CoK (α-tubulin), CHO-K1; type: cell-based; details: CoK at position 26 of α-tubulin, 10 μM AzG-1, 2 h, 37 °C
Protocol: as §1, §2

[3] = system: CoK-bearing α-tubulin in HeLa cells; assay: Protein labelling on live cells using CoK (α-tubulin), HeLa; type: cell-based; details: CoK-bearing α-tubulin versus wild type
Protocol: CHO-K1 or HeLa cells were grown in DMEM-low glucose 1 g l^−1 (Gibco) supplemented with 10% FBS (Gibco) in eight-well plate (ibid). At 70∼80% confluency, cells were transfected using 4 μl iN-fect in vitro transfection reagent with 100 ng pCoKRS-tRNA and 900 ng pTub-26TAG or with 900 ng pTubwt. After 6 h of incubation, media was replaced with fresh media (DMEM-low glucose medium with 10% FBS, 1% Pen-Strep, 2 Mm […]) containing 0.25 Mm CoK. After an additional 36 h, media was exchanged with normal growth media without CoK and cells were incubated for 2 h and washed (four times) to remove remaining CoK. Next, growth media containing 1 μM AzG-1 was added to the plates, and cells were incubated for 2 h with four times of washing (30 min each time) using growth media. High-resolution images of live cells were obtained using a Zeiss LSM510 META laser scanning confocal microscope.
Supplementary Figure 21 Fluorescence imaging of α-tubulin in live HeLa.
HeLa cells were co-transfected with plasmids pCoKRS-tRNA and pTub-26TAG or plasmid pTubwt followed by sequential treatment with CoK and AzG-1 as described above. Live cell […]
in HeLa cells. Scale bar, 10 μm.
(1 picture or pasted object on this page, not shown here)

CC1=CC(C)=[N+]2C1=C(CCC(=O)NCCN=[N+]=[N-])c1c(C)cc(C)n1[B-]2(F)F [AzG-1]
Labelling of mitochondria [1]: specifically labelled mitochondria | Labelling of α-tubulin [2]: conjugated specifically with CoK-bearing α-tubulin | Labelling of α-tubulin [3]: conjugated specifically with CoK-bearing α-tubulin

— publication PMC4915154, “Development of background-free tame fluorescent probes for intracellular live cell imaging” (Nature Communications, 2016)
